From US6476079B1, “Devices for the delivery of drugs having antiprogestinic properties” (priority 1999, dated 2002) come the findings set out here.

This data set is described as follows: Permeation test of antiprogestins through elastomer membranes (two-compartment diffusion cell). The class given is physicochemical. As to conditions: 37° C. The procedure:
The assay apparatus described in the publication Yie W. Chien, Transdermal Controlled Systemic Medications, Marcel Dekker Inc., New York and Basel 1987, page 173, was used in the tests.
The drug fluxes (permeations) through membranes were measured with a two-compartment diffusion cell at 37° C. (Side-Bi-Side™ diffusion cell, Crown Glass Company). The apparatus consisted of two concentric cells (donor and receptor compartments) that were separated by the elastomer membrane to be investigated. […] A drug solution and solvent (without drug) was added into the donor and the receptor compartments. At each predetermined time interval, samples were withdrawn from the receptor compartment and replaced with the same volume of solvent. The amount of the drug that permeated through the membrane was measured by HPLC. In all measurements, the thickness (0.4 mm) of the membrane and the surface area of the membranes were constant.
In the tests described below, the permeation rates of two different drugs through a 0.4-mm-thick elastomer membrane were measured by using the assay apparatus described above. The tables below show the effect of the concentration of PEO groups (% by weight of the said compositions) on the permeation rates of the different drugs for elastomers prepared from different composition types. The tables show the relative permeation as compared with a commercial crosslinked dimethyl siloxane-vinyl methyl siloxane elastomer (Mn approximately 400,000 g/mol) containing a silica filler.

[1] abbreviates: composition type B, PEO concentration 7.5 % by weight, 0.4 mm membrane, relative to reference elastomer.
Setting [2] is: composition type B, PEO concentration 9.8 % by weight, 0.4 mm membrane, relative to reference elastomer.
The mark [3] stands for this setting: reference membrane: commercial crosslinked dimethyl siloxane-vinyl methyl siloxane elastomer with silica filler, PEO 0 % by weight, 0.4 mm.
The mark [4] stands for this setting: composition type A, PEO concentration 4.7 % by weight, 0.4 mm membrane, relative to reference elastomer.
The mark [5] stands for this setting: composition type A, PEO concentration 5.1 % by weight, 0.4 mm membrane, relative to reference elastomer.
Setting [6] is: composition type B, PEO concentration 3.1 % by weight, 0.4 mm membrane, relative to reference elastomer.
[7] abbreviates: composition type B, PEO concentration 4.1 % by weight, 0.4 mm membrane, relative to reference elastomer.
The mark [8] stands for this setting: composition type B, PEO concentration 5.0 % by weight, 0.4 mm membrane, relative to reference elastomer.

As to `CC(=O)c1ccc([C@H]2C[C@@]3(C)[C@@H](CC[C@@]3(O)C(F)(F)C(F)(F)F)[C@@H]3CCC4=CC(=O)CCC4=C32)cc1` [Compound 4, 11β-(4-Acetylphenyl)-17β-hydroxy-17α-(1,1,2,2,2-pentafluoroethyl)estra-4,9-dien-3-one], the Relative permeation by setting is: under setting [1], 16.4; under setting [2], 27.6; under setting [3], 1.

Take `CCNC(=O)ON=Cc1ccc(C2CC3(C)C(CCC3(COC)OC)C3CCC4=CC(=O)CCC4=C23)cc1` (stereo not drawn) [Compound 2, 4-[17β-Methoxy-17α-(methoxymethyl)-3-oxoestra-4,9-dien-11β-yl]benzaldehyde-1-[O-(ethylamino)carbonyl]oxime]: the Relative permeation amounted to 4.1 under setting [4]; 7.6 under setting [5]; 3.7 under setting [6]; 4.1 under setting [7]; 5.8 under setting [8]; 11.5 under setting [1]. In addition, the Relative permeation was determined as 17.3 under setting [2] and 1 under setting [3].

As to `CCSC(=O)O/N=C/c1ccc([C@H]2C[C@@]3(C)[C@@H](CC[C@@]3(COC)OC)[C@@H]3CCC4=CC(=O)CCC4=C32)cc1` [Compound 3], the Relative permeation runs as follows: (composition type B, PEO concentration 1.4 % by weight, 0.4 mm membrane, relative to reference elastomer) 2.1; under setting [2], 6.4; under setting [3], 1.

Consider “(Z)-6′-(4-Cyanophenyl)-17-β-hydroxy-17-α-(3-isovaleryloxy-1-propenyl))-9,11-α-diydro-4′H-naphth [3′,2′,1′:10,9,11]estr-4-en-3-one [Compound 6]”, for which the Relative permeation is, setting by setting: under setting [4], 2.9; (composition type A, PEO concentration 5.3 % by weight, 0.4 mm membrane, relative to reference elastomer) 5.9; under setting [3], 1.

On to `COC[C@]1(OC)CC[C@H]2[C@@H]3CCC4=CC(=O)CCC4=C3[C@@H](c3ccc(/C=N/O)cc3)C[C@@]21C` [Compound 1, 4-[17β-methoxy-17α-(methoxymethyl)-3-oxoestra-4,9-dien-11β-yl]benzaldehyde-1-(E)-oxime], for which the Relative permeation worked out at 3.5 under setting [4], 5.3 under setting [5] and 1 under setting [3].

As to `CN(C)c1ccc([C@H]2C[C@@]3(C)[C@@H](CC[C@@]3(O)/C=C\CO)[C@@H]3CCC4=CC(=O)CC[C@@H]4[C@H]32)cc1` [Compound 5, Estr-4-en-3-one, 11-[4-(dimethylamino)phenyl]-17-hydroxy-17-(3-hydroxy-1-propenyl)-,[11.beta,17β,17(Z)]-(9CI)], the Relative permeation under setting [4] is listed as 4.1; the Relative permeation under setting [6] was 6.0; the Relative permeation under setting [7] was 6.7; the Relative permeation under setting [8] stood at 10.7; the Relative permeation under setting [1] amounted to 18.7; the Relative permeation under setting [2] was found to be 37.2. Besides, the Relative permeation under setting [3] was 1.
